From ChEMBL document CHEMBL4414609, “High-Affinity Alkynyl Bisubstrate Inhibitors of Nicotinamide N-Methyltransferase (NNMT)” (J Med Chem, 2019)

Assays:
[1] = molecular target: T1, TPMT (thiopurine S-methyltransferase) (Homo sapiens, UniProt P51580); test: Inhibition of human TPMT expressed in Escherichia coli assessed as reduction in SAH level at 10 uM using 6-mercaptopurine as substrate in presence of SAM incubated for 30 mins by LC-MS/MS analysis relative to control; conditions: recombinant human TPMT expressed in Escherichia coli, probe 6-mercaptopurine
T1 sequence (P51580 whole entry): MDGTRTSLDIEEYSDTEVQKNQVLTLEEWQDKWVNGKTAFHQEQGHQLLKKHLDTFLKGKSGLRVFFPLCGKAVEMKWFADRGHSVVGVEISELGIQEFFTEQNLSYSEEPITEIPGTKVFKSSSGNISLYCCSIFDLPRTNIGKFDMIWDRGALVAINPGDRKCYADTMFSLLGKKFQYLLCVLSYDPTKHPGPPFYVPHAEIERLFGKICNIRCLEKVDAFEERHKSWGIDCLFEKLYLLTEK

[2] = molecular target: INMT (indolethylamine N-methyltransferase) (Homo sapiens, UniProt O95050); test: Inhibition of wild type human INMT expressed in Escherichia coli at 10 uM using tryptamine as substrate in presence of SAM incubated for 30 mins by MTase-Glo assay relative to control; conditions: probe tryptamine
[3] = molecular target: T2, COMT (catechol O-methyltransferase) (Homo sapiens, UniProt P21964); test: Inhibition of human COMT expressed in Escherichia coli at 10 uM assessed as reduction in SAH level using pyrocatechol as substrate in presence of SAM incubated for 15 mins by LC-MS/MS analysis relative to control; conditions: recombinant human COMT expressed in Escherichia coli, probe pyrocatechol
T2 sequence (P21964 whole entry): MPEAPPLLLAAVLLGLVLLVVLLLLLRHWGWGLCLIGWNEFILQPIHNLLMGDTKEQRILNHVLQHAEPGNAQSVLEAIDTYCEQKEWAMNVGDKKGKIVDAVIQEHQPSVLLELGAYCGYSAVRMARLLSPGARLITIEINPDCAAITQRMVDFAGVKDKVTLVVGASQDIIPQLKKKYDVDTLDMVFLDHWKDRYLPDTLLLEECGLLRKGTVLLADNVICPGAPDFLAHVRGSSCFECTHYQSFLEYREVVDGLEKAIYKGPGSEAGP

[4] = molecular target: T3, GAMT (guanidinoacetate N-methyltransferase) (Homo sapiens, UniProt Q14353); test: Inhibition of human GAMT expressed in Escherichia coli at 10 uM assessed as reduction in SAH level using guanidineacetic acid as substrate in presence of SAM incubated for 30 mins by LC-MS/MS analysis relative to control; conditions: recombinant human GAMT expressed in Escherichia coli, probe guanidineacetic acid
[5] = molecular target: T1, TPMT (thiopurine S-methyltransferase); test: Inhibition of human TPMT expressed in Escherichia coli assessed as reduction in SAH level at 1 uM using 6-mercaptopurine as substrate in presence of SAM incubated for 30 mins by LC-MS/MS analysis relative to control; conditions: recombinant human TPMT expressed in Escherichia coli, probe 6-mercaptopurine
[6] = molecular target: T4, PNMT (phenylethanolamine N-methyltransferase) (Homo sapiens, UniProt P11086); test: Inhibition of human PNMT expressed in Escherichia coli at 1 uM assessed as reduction in SAH level using DL-normetanephrine as substrate in presence of SAM incubated for 45 mins by LC-MS/MS analysis relative to control; conditions: recombinant human PNMT expressed in Escherichia coli, probe DL-normetanephrine
T4 sequence (P11086 whole entry): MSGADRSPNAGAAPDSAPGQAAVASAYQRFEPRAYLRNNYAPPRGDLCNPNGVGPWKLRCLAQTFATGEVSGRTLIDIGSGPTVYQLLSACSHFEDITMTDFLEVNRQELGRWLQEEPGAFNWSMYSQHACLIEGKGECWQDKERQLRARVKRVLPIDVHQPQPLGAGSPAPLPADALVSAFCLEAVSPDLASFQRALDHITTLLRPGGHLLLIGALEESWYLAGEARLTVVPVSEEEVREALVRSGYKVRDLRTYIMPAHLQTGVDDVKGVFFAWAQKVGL

[7] = molecular target: T3, GAMT (guanidinoacetate N-methyltransferase); test: Inhibition of human GAMT expressed in Escherichia coli at 1 uM assessed as reduction in SAH level using guanidineacetic acid as substrate in presence of SAM incubated for 30 mins by LC-MS/MS analysis relative to control; conditions: recombinant human GAMT expressed in Escherichia coli, probe guanidineacetic acid
[8] = molecular target: Protein arginine N-methyltransferase 1 (Homo sapiens, UniProt Q99873); test: Inhibition of human PRMT1 expressed in Escherichia coli assessed as reduction in methylated histone H4 full length level using histone H4 full length as substrate in presence of [3H] SAM incubated for 20 mins by scintillation counting
[9] = molecular target: Histone-lysine N-methyltransferase SETDB1 (Homo sapiens, UniProt Q15047); test: Inhibition of human SETDB1 expressed in sf9 insect cells assessed as reduction in methylated histone H3 full length level using histone H3 full length as substrate in presence of [3H] SAM incubated for 30 mins by scintillation counting
[10] = molecular target: T5, Thiopurine S-methyltransferase (Homo sapiens, UniProt P51580); test: Inhibition of human TPMT expressed in Escherichia coli assessed as reduction in SAH level using 6-mercaptopurine as substrate in presence of SAM incubated for 30 mins by LC-MS/MS analysis
T5 sequence (P51580 whole entry): T1 sequence (P51580 whole entry)

[11] = molecular target: Indolethylamine N-methyltransferase (Homo sapiens, UniProt O95050); test: Inhibition of wild type human INMT expressed in Escherichia coli using tryptamine as substrate in presence of SAM incubated for 30 mins by MTase-Glo assay
U2OS = test: Cytotoxicity against human U2OS cells at 100 uM after 48 hrs by CellTiter-Glo luminescent cell viability; format: cell-based
[12] = Permeability across apical to basolateral side in human Caco2 cells after 60 mins by HPLC-MS/MS analysis; format: ADME, cell-based; conditions: caco-2, 1 h

Protein arginine N-methyltransferase 1, sequence (Q99873 whole entry): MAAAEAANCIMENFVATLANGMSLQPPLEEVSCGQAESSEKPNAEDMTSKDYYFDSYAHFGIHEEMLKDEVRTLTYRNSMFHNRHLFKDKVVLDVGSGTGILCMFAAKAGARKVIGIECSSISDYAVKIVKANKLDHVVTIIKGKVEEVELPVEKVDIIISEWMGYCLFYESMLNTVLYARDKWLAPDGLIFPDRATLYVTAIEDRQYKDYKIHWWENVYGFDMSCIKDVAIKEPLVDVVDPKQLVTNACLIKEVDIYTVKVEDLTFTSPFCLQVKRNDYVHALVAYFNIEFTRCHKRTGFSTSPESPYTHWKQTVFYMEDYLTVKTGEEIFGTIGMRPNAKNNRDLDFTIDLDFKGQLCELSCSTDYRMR
INMT (indolethylamine N-methyltransferase), sequence (O95050 whole entry): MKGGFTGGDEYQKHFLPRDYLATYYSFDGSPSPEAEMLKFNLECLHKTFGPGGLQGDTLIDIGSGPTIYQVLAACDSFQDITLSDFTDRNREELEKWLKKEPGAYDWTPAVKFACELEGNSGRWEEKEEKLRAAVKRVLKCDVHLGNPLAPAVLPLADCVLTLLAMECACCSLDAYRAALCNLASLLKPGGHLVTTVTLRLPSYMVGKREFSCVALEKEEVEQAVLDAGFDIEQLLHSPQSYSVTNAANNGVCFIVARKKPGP
Indolethylamine N-methyltransferase, sequence (O95050 whole entry): as above

NC(=O)c1cccc(C#C[C@@H](CC[C@H](N)C(=O)O)C[C@H]2O[C@@H](n3cnc4c(N)ncnc43)[C@H](O)[C@@H]2O)c1
inhibition at 0.5 h, 10 µM [1]: 76%
inhibition at 0.5 h, 10 µM [2]: 53%
inhibition at 0.25 h, 10 µM [3]: 43%
inhibition at 0.5 h, 10 µM [4]: 26%
inhibition at 0.5 h, 1 µM [5]: 51%
inhibition at 0.75 h, 1 µM [6]: 0%
inhibition at 0.5 h, 1 µM [7]: 0%
IC50 [8]: > 10 µM
IC50 [9]: > 10 µM
IC50 [10]: 1 µM
IC50 [11]: 3.4 µM
Activity (U2OS): Non-Toxic
permeability [12]: Impermeable
